This note sets out measurements from patent US20130345218A1 (Vertex Pharmaceuticals Incorporated, priority 2010, published 2013).

Test [1] relates to influenza A virus (A/PR/8/34). Kind of test: microbe, parasite or virus in culture. As to conditions: mean IC50 (mean all), MDCK cells, A/PR/8/34, 72 hours, read-out: Flu, MDCK IC50. Format: cell-based.
In test [2] the test system is influenza A virus (A/PR/8/34) minus-strand viral RNA. Kind of test: microbe, parasite or virus in culture. Format: cell-based. The settings on record: mean EC50 (mean all), viral RNA by bDNA, read-out: bDNA EC50.
Setting [3] is: Influenza A virus, PR/8, MDCK, 72 h.

Where two headings read alike, the source gives them in different places. Bounds are passed on as bounds.

A word on the IC50: it is the point on the concentration scale where inhibition reaches its midpoint. The EC50 is the concentration that produces a half-maximal response. Consider “3-(2-(5-fluoro-1H-pyrrolo[2,3-b]pyridin-3-yl)pyridin-4-ylamino)bicyclo[2.2.2]octane-2-carboxylic acid [Compound I-49]”, for which the IC50 in test [1] was below 3.3 µM. Further, the half-maximal effective concentration (EC50) in test [2] was below 3.3 µM.
For `O=C(O)[C@H]1C2CCC(CC2)[C@@H]1Nc1cncc(-c2c[nH]c3ncc(F)cc23)n1` (mixture of isomers) [Compound I-38], the IC50 in test [1] (setting [3]) is below 3.3 µM. For the same compound, the concentration for a half-maximal effect (EC50) in test [2] (Influenza A virus, PR/8) is below 3.3 µM.
`O=C(O)[C@H]1C2CCC(CC2)[C@@H]1Nc1ncc(F)c(-c2c[nH]c3ncc(F)cc23)n1` (racemic) [Compound I-29, (+/−) trans-3-((5-fluoro-4-(5-fluoro-1H-pyrrolo[2,3-b]pyridin-3-yl)pyrimidin-2-yl)amino)bicyclo[2.2.2]octane-2-carboxylic acid]: the IC50 in test [1] (setting [3]) was below 3.3 µM. In addition, in test [2] (Influenza A virus, PR/8), the EC50 was below 3.3 µM.
Regarding `N#Cc1cc(F)c(N[C@H]2C3CCC(CC3)[C@@H]2C(=O)O)nc1-c1c[nH]c2ncc(F)cc12` (racemic) [Compound I-30], in test [1] (setting [3]), the IC50 is below 3.3 µM. The EC50 in test [2] (Influenza A virus, PR/8) was below 3.3 µM.
Consider `O=C(O)[C@H]1C2CCC(CC2)[C@@H]1Nc1nc(-c2c[nH]c3ncc(F)cc23)ccc1F` (racemic) [Compound I-35, (+/−) 3-(3-fluoro-6-(5-fluoro-1H-pyrrolo[2,3-b]pyridin-3-yl)pyridin-2-ylamino)bicyclo[2.2.2]octane-2-carboxylic acid], for which the IC50 in test [1] (setting [3]) was below 3.3 µM. Also, in test [2] (Influenza A virus, PR/8), the concentration for a half-maximal effect (EC50) was below 3.3 µM.
`O=C(O)[C@H]1C2CCC(CC2)[C@@H]1Nc1cc(C(F)(F)F)cc(-c2c[nH]c3ncc(F)cc23)n1` (racemic) [Compound I-37, (+/−)-trans-3-((6-(5-fluoro-1H-pyrrolo[2,3-b]pyridin-3-yl)-4-(trifluoro-methyl)pyridin-2-yl)amino)bicyclo[2.2.2]octane-2-carboxylic acid]: in test [1] (setting [3]), the IC50 is below 3.3 µM. The EC50 in test [2] (Influenza A virus, PR/8) was below 3.3 µM.
`N#Cc1cnc(N[C@@H]2C3CCC(CC3)[C@H]2C(=O)O)nc1-c1c[nH]c2ncc(C(F)(F)F)cc12` (racemic) [Compound I-39, (+/−)-trans 3-((5-cyano-4-(5-(trifluoromethyl)-1H-pyrrolo[2,3-b]pyridin-3-yl)pyrimidin-2-yl)amino)bicyclo[2.2.2]octane-2-carboxylic acid]: the IC50 in test [1] (setting [3]) was below 3.3 µM. In addition, the EC50 in test [2] (Influenza A virus, PR/8) was below 3.3 µM.
For `O=C(O)C1C2CCC(CC2)C1Nc1cnnc(-c2c[nH]c3ncc(F)cc23)n1` (racemic) [Compound I-42, (+/−)-3-[[3-(5-fluoro-1H-pyrrolo[2,3-b]pyridin-3-yl)-1,2,4-triazin-5-yl]amino]bicyclo[2.2.2]octane-2-carboxylic acid], the IC50 in test [1] (setting [3]) was below 3.3 µM. In addition, the concentration giving a half-maximal response (EC50) in test [2] (Influenza A virus, PR/8) is below 3.3 µM.
Regarding `O=C(O)[C@H]1C2CCC(CC2)[C@@H]1Nc1nc(Cl)nc(-c2c[nH]c3ncc(F)cc23)n1` (racemic) [Compound I-44, (+/−)-trans-3-(4-chloro-6-(5-fluoro-1H-pyrrolo[2,3-b]pyridin-3-yl)-1,3,5-triazin-2-ylamino)bicyclo[2.2.2]octane-2-carboxylic acid], the IC50 in test [1] (setting [3]) is below 3.3 µM. Besides, in test [2] (Influenza A virus, PR/8), the 50% effective concentration (EC50) is below 3.3 µM.
Take `O=C(O)[C@H]1C2CCC(CC2)[C@@H]1Nc1cc(-c2c[nH]c3ncc(F)cc23)ncc1F` (racemic) [Compound I-50, (+/−)-(2,3)-trans-3-((5-fluoro-2-(5-fluoro-1H-pyrrolo[2,3-b]pyridin-3-yl)pyridin-4-yl)amino)bicyclo[2.2.2]octane-2-carboxylic acid]: the IC50 in test [1] (setting [3]) was below 3.3 µM. In addition, the EC50 in test [2] (Influenza A virus, PR/8) was below 3.3 µM.
In the case of `N#Cc1cc(F)c(NC2C3CCC(CC3)C2C(=O)O)cc1-c1c[nH]c2ncc(F)cc12` (racemic) [Compound I-51, (+/−)-3-((4-cyano-2-fluoro-5-(5-fluoro-1H-pyrrolo[2,3-b]pyridin-3-yl)phenyl)amino)bicyclo[2.2.2]octane-2-carboxylic acid], the IC50 in test [1] (setting [3]) is below 3.3 µM. Also, the EC50 in test [2] (Influenza A virus, PR/8) is below 3.3 µM.
Regarding `N#Cc1cnc(N[C@@H]2CCC[C@H](NC(=O)C3CC3)C2)nc1-c1c[nH]c2ncc(C(F)(F)F)cc12` (stereo in doubt) [Compound I-10, N-((1S,3R)-3-((5-cyano-4-(5-(trifluoromethyl)-1H-pyrrolo[2,3-b]pyridin-3-yl)pyrimidin-2-yl)amino)cyclohexyl)cyclopropanecarboxamide], in test [1] (setting [3]), the IC50 was below 3.3 µM. In addition, the EC50 in test [2] (Influenza A virus, PR/8) is below 3.3 µM.
With `O=C(N[C@@H]1CCC[C@H](Nc2nc(-c3c[nH]c4ncc(F)cc34)c(C(F)(F)F)cc2F)C1)N1CCCC1` (stereo in doubt) [Compound I-20, N-((1R,3S)-3-((3-fluoro-6-(5-fluoro-1H-pyrrolo[2,3-b]pyridin-3-yl)-5-(trifluoromethyl)-pyridin-2-yl)amino)cyclohexyl)pyrrolidine-1-carboxamide], the IC50 in test [1] (setting [3]) is below 3.3 µM. For the same compound, the EC50 in test [2] (Influenza A virus, PR/8) is below 3.3 µM.
As to `N#Cc1cnc(N[C@H]2CCCC[C@@H]2C(=O)O)nc1-c1c[nH]c2ncc(Cl)cc12` [Compound I-1, (1S,2S)-2-((4-(5-chloro-1H-pyrrolo[2,3-b]pyridin-3-yl)-5-cyanopyrimidine-2-yl)amino)-cyclohexanecarboxylic acid], the IC50 in test [1] (setting [3]) is below 3.3 µM. Further, in test [2] (Influenza A virus, PR/8), the half-maximal effective concentration (EC50) is below 3.3 µM.
As to `N#Cc1cnc(N[C@H]2CCC[C@@H](C(=O)O)C2)nc1-c1c[nH]c2ncc(Cl)cc12` [Compound I-3, (1R,3S)-3-((4-(5-chloro-1H-pyrrolo[2,3-b]pyridin-3-yl)-5-cyanopyrimidine-2-yl)amino)-cyclohexanecarboxylic acid], the IC50 in test [1] (setting [3]) was below 3.3 µM. Further, the EC50 in test [2] (Influenza A virus, PR/8) is below 3.3 µM.
As to `N#Cc1cnc(N[C@H]2CCC[C@@H](C(=O)O)C2)nc1-c1c[nH]c2ncc(C(F)(F)F)cc12` [Compound I-4, (1R,3S)-3-((5-cyano-4-(5-(trifluoromethyl)-1H-pyrrolo[2,3-b]pyridin-3-yl)pyrimidin-2-yl)amino)cyclohexanecarboxylic acid], the half-maximal inhibitory concentration (IC50) in test [1] (setting [3]) is below 3.3 µM. In addition, the 50% effective concentration (EC50) in test [2] (Influenza A virus, PR/8) was below 3.3 µM.
As to `N#Cc1cnc(N[C@H]2CCC[C@@H](C(=O)O)C2)nc1-c1c[nH]c2ncccc12` [Compound I-5], the IC50 in test [1] (setting [3]) is at least 3.3 µM.
On to `CC1(C(=O)N[C@@H]2CCC[C@H](Nc3ncc(C#N)c(-c4c[nH]c5ncc(C(F)(F)F)cc45)n3)C2)CC1` [Compound I-6, N-((1R,3S)-3-((5-cyano-4-(5-(trifluoromethyl)-1H-pyrrolo[2,3-b]pyridin-3-yl)pyrimidin-2-yl)amino)cyclohexyl)-1-methylcyclopropanecarboxamide], for which the concentration for half-maximal inhibition (IC50) in test [1] (setting [3]) was below 3.3 µM. The concentration for a half-maximal effect (EC50) in test [2] (Influenza A virus, PR/8) is below 3.3 µM.
For the compound `N#Cc1cnc(N[C@H]2CCCC[C@@H]2C(=O)O)nc1-c1c[nH]c2ncc(C(F)(F)F)cc12` [Compound I-7, (1S,2S)-2-((5-cyano-4-(5-(trifluoromethyl)-1H-pyrrolo[2,3-b]pyridin-3-yl)pyrimidin-2-yl)amino)cyclohexanecarboxylic acid], the half-maximal inhibitory concentration (IC50) in test [1] (setting [3]) is below 3.3 µM. The EC50 in test [2] (Influenza A virus, PR/8) is below 3.3 µM.
Regarding `O=C(O)[C@@H]1C2CCC(CC2)[C@H]1Nc1nc(-c2c[nH]c3ncc(F)cc23)c(F)cc1F` [Compound I-27], the concentration for a half-maximal effect (EC50) in test [2] was below 3.3 µM.
On the same count and under the same terms, with “(+/−)-(exo)-7-((3,5-difluoro-6-(5-fluoro-1H-pyrrolo[2,3-b]pyridin-3-yl)pyridin-2-yl)amino)bicyclo[3.2.2]nonane-6-carboxylic acid [Compound I-36]” the figure was below 3.3 µM.
